Measured values from US9526680B2, “Method for searching for malodor control agent, malodor control agent, and malodor control method” (Kao Corporation, priority 2010, dated 2016).

Assays:
Type in all cases: in vivo
[1] = Sensory evaluation test of nonanoic acid odor inhibition; conditions: test substance diluted 10 times with propylene glycol (FIG. 6)
Protocol: (§1) Cotton balls were introduced into a glass bottle (Hakuyo Glass Co., Ltd. No. 11, capacity 110 ml), and hexanoic acid diluted 100 times with propylene glycol, nonanoic acid diluted 10 times with propylene glycol, or isovaleric acid diluted 1000 times with propylene glycol, as a malodor, and a test substance were added dropwise in an amount of […] to the cotton balls. The glass bottle was left to stand overnight at room temperature, and the odor molecules were sufficiently volatilized in the glass bottle. A sensory evaluation test was carried out by a panel of three panelists (5 panelists for isovaleric acid), and while the intensity of odor in the case of adding dropwise the malodor alone was rated as 5, the intensity of the malodor in the case of incorporating a test substance was evaluated on the basis of a system of 20 grades from 0 point to 10 points (0.5 points per grade). […]

[2] = Sensory evaluation test of isovaleric acid odor inhibition; conditions: test substance diluted 1000 times with propylene glycol, 5 panelists (FIG. 7)
Protocol: as §1

[3] = Sensory evaluation test of cresol odor inhibition (specificity); conditions: cresol and test substance each diluted 100 times with propylene glycol (FIG. 8)
Protocol: Cotton balls were introduced into a glass bottle (Hakuyo Glass Co., Ltd. No. 11, capacity 110 ml), and hexanoic acid diluted 100 times with propylene glycol, nonanoic acid diluted 10 times with propylene glycol, or isovaleric acid diluted 1000 times with propylene glycol, as a malodor, and a test substance were added dropwise in an amount of […] to the cotton balls. The glass bottle was left to stand overnight at room temperature, and the odor molecules were sufficiently volatilized in the glass bottle. A sensory evaluation test was carried out by a panel of three panelists (5 panelists for isovaleric acid), and while the intensity of odor in the case of adding dropwise the malodor alone was rated as 5, the intensity of the malodor in the case of incorporating a test substance was evaluated on the basis of a system of 20 grades from 0 point to 10 points (0.5 points per grade).
In the experiment, cresol diluted 100 times with propylene glycol was used as the malodor, and florhydral diluted 100 times with propylene glycol was used as the test substance.

CC(C)c1cccc(C(C)CC=O)c1 (stereo not drawn) [Florhydral, 3-(3-isopropylphenyl)-butyraldehyde]
Inhibition of nonanoic acid odor (in words) [1]: the odors were also inhibited
Inhibition of isovaleric acid odor (in words) [2]: the odors were also inhibited
Inhibition of cresol odor (in words) [3]: not inhibited
